{"source": "patent US11111500B2", "about": "“Mutated protoporphyrinogen IX oxidase (PPX) genes” (CIBUS US LLC, priority 2010, dated 2021)", "tested_on": "potato protoplasts (protoplast-derived cells)", "experiment": "Sulfentrazone kill curve with cell suspension and shoot tip-derived protoplasts", "type": "cell-based", "details": "for Microcallus formation: exposed one month; for # Of calli in 3 beads, # / # Of calli in 3 beads, %: Non treated protoplast + PEG; for # Of calli in 3 beads, # / # Of calli in 3 beads, % / # of calli in beads, # / # of calli in beads, %: one month; for # Of calli in 3 beads, % / # of calli in beads, %: relative to 0.0 μM; for # of calli in beads, # / # of calli in beads, %: Stop-GFP + Correcting GRON protoplasts", "experimental": "Herbicide selection experiments were performed to determine the concentration of herbicide necessary to kill protoplast derived microcalli in a defined treatment period. […] The herbicide was suspended in DMSO, with the final concentration of DMSO in the herbicide treatments being 1%. Development of cells was evaluated under the microscope once a week. […]\nTherefore, new kill curves were initiated with lower concentrations of 0, 0.5, 0.6, 0.7 and 0.8 μM of sulfentrazone, shown in Table 1.3.\nAbout 200 shoot tips of 2-8 week-old in vitro shoots that have been cultured under a regular day/night regime, or, preferably were kept for two days before protoplast isolation in the dark, shoots may be cut into small pieces with a scalpel in a petri dish with sterile water. After all tips have been cut, the water is replaced with protoplast culture medium, preferably BN (B5 Salts and Vitamins (Phytotechnology Laboratories), glucose 20 g/L, mannitol 70 g/L, alpha naphthalene acetic acid 5 mg/L, additional CaCl2×2H2O 600 mg/L, casein hydrolysate 250 mg/L, cystcine-HCL 10 mg/L, polyvinylpyrrolidone (MW 10,000) 5 g/L. After approximately 1-2 h, the protoplast culture medium is replaced with enzyme solution, for example consisting of medium BN, in which 0.5% (w/v) Cellulase YC and 0.75% (w/v) Maccrozyme R10 (both from Karlan Research Products, Cottonwood, Ariz.), 1 g/L bovine serum albumin, and 1 g/L 2-morpholinoethanesulfonic acid are dissolved. The ratio of the number of shoot tips over the volume of enzyme solution can be between 10 and 16, preferably 13. The dish with shoot tip pieces in enzyme solution is incubated for at 25° C.-30° C., preferably 28° C., in darkness on a shaker set to about 50 rpm. After overnight incubation the protoplast suspension is purified using an iodixanol density gradient (adapted from Optiprep Application Sheet C18; Purification of Intact Plant Protoplasts; Axis-Shield USA, 10 Commerce Way, Norton, Mass. 02776). After the density gradient centrifugation, the band with purified protoplasts is removed together with about 5 mL W5 medium (Frigerio et al., 1998). The protoplast density and yield are determined with a hemocytometer. The protoplasts density is adjusted to 1×10^6/mL in BN medium containing 2 mg/L 2,6-dichlorobenzonitrile (cellulose synthase inhibitor), and the protoplasts are cultured in darkness at 30° C. for about 16 h.\n1. Fast growing cell suspensions are used, preferably three days after their last subculture. 1.5 mL settled cell volume is transferred to about 15 ml BN medium, which after 2 h is replaced with enzyme solution. 2. The protoplast purification is followed immediately by the GRON/PEG treatment.\nThe protoplast suspension is mixed with an equal volume of W5 medium, transferred to a 50 mL centrifuge tube, and centrifuged for 10 min at the lowest setting of a clinical centrifuge (about 50×g). The supernatant is removed and replaced with TM medium (Klaus, S. Markerfreie transplastome Tabakpflanzen (Marker-free transplastomic tobacco plants). PhD Dissertation, 2002, Ludwig-Maximilians-Universitát Múnchen, 109 pp), adjusting the protoplast density to 5×10^6/mL. Aliquots of 100 μL containing 5×10^5 protoplasts each are distributed into 12 mL round bottom centrifuge tubes. GRONs (such as those shown in Table 14) targeted at one or more mutations in one or both of the mitochondrial and plastidal PPX genes are then introduced into the protoplasts using a PEG treatment. To introduce the GRONs into the protoplasts, 12.5 μg GRON dissolved in 25 μL purified water and 125 μL of a polyethylene glycol solution (5 g PEG MW 1500, 638 mg mannitol, 207 mg CaNO3×4H2O and 8.75 mL purified water; pH adjusted to about 9.0) is added. After a 10-30 min incubation on ice, the protoplast-PEG suspension is washed with W5 medium and resuspended in medium BN. The suspension is kept overnight in darkness at room temperature.\nOne day after the GRON introduction, protoplasts are embedded in calcium alginate. […]", "data": [{"smiles": "Cc1nn(-c2cc(NS(C)(=O)=O)c(Cl)cc2Cl)c(=O)n1C(F)F", "note": "[sulfentrazone]", "values": [{"measurement": "Microcallus formation", "setting": "7.8 μM sulfentrazone", "result": "No"}, {"measurement": "Microcallus formation", "setting": "15.6 μM sulfentrazone", "result": "No"}, {"measurement": "Microcallus formation", "setting": "31.25 μM sulfentrazone", "result": "No"}, {"measurement": "Microcallus formation", "setting": "62.5 μM sulfentrazone", "result": "No"}, {"measurement": "# Of calli in 3 beads, #", "setting": "0.5 μM", "result": 45}, {"measurement": "# Of calli in 3 beads, %", "setting": "0.5 μM", "result": 30, "unit": "%"}, {"measurement": "# Of calli in 3 beads, #", "setting": "0.6 μM", "result": 8}, {"measurement": "# Of calli in 3 beads, %", "setting": "0.6 μM", "result": 6.9, "unit": "%"}, {"measurement": "# Of calli in 3 beads, #", "setting": "0.7 μM", "result": 2}, {"measurement": "# Of calli in 3 beads, %", "setting": "0.7 μM", "result": 1.7, "unit": "%"}, {"measurement": "# Of calli in 3 beads, #", "setting": "0.8 μM", "result": 0.0}, {"measurement": "# Of calli in 3 beads, %", "setting": "0.8 μM", "result": 0.0, "unit": "%"}, {"measurement": "# of calli in beads, #", "setting": "0.5 μM", "result": 38}, {"measurement": "# of calli in beads, %", "setting": "0.5 μM", "result": 30.2, "unit": "%"}, {"measurement": "# of calli in beads, #", "setting": "0.6 μM", "result": 12}, {"measurement": "# of calli in beads, %", "setting": "0.6 μM", "result": 9.6, "unit": "%"}, {"measurement": "# of calli in beads, #", "setting": "0.7 μM", "result": 7}, {"measurement": "# of calli in beads, %", "setting": "0.7 μM", "result": 5.6, "unit": "%"}, {"measurement": "# of calli in beads, #", "setting": "0.8 μM", "result": 0.0}, {"measurement": "# of calli in beads, %", "setting": "0.8 μM", "result": 0.0, "unit": "%"}, {"measurement": "concentration sufficient to kill all protoplast-derived cells", "setting": "shoot tip-derived protoplasts and cell suspension", "result": 7.8, "unit": "µM"}]}]}
